Test [1] deals with T1, CathepsinG, from human neutrophils (Homo sapiens, UniProt P08311).
T1 sequence (P08311 21-244): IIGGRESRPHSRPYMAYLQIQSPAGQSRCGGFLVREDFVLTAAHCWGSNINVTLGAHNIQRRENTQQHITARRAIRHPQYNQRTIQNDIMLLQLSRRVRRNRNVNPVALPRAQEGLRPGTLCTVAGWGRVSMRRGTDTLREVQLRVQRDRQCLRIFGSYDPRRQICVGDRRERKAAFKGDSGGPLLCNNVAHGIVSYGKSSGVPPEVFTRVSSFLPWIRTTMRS
The test is described as follows: Enzymatic assay, cathepsin G. To be noted: Cathepsin G IC50.

In test [2] the target is T2, Elastase from human neutrophils (Homo sapiens, UniProt P08246).
T2 sequence (P08246 30-267): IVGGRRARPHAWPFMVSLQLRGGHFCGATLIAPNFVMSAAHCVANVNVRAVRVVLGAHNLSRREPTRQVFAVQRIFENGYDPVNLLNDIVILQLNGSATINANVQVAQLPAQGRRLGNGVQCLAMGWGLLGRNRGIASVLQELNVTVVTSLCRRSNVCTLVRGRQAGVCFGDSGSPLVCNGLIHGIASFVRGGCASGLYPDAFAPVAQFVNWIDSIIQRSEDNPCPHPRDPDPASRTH
Nature of the test: Enzymatic assay, elastase. To be noted: Elastase IC50.

Where a SMILES comes first, the peptide text is derived from it.

By IC50 is commonly meant the concentration that inhibits the measured activity by half. Higher therefore signals weaker potency in that assay.

Take `CC[C@H](C)[C@@H]1NC(=O)[C@@H]2CCCN2C(=O)[C@@H]2CCCN2C(=O)[C@H](CC(=O)O)NC(=O)[C@H](CO)NC(=O)[C@H](CCCCN)NC(=O)[C@H]([C@@H](C)O)NC(=O)[C@@H]2CSSC[C@H](NC1=O)C(=O)N[C@@H](CO)C(=O)N1CCC[C@@H]1C(=O)N1CCC[C@H]1C(=O)N[C@@H](Cc1c[nH]c3ccccc13)C(=O)N2` [Ex. 61] (HELM PEPTIDE1{W.C.T.K.S.D.P.P.I.C.S.[dP].P}$PEPTIDE1,PEPTIDE1,2:R3-10:R3|PEPTIDE1,PEPTIDE1,1:R1-13:R2$$$V2.0): in test [1], the half-inhibitory concentration (IC50) was 0.072 µM.

In test [1], `CC[C@H](C)[C@@H]1NC(=O)[C@@H]2CCCN2C(=O)[C@@H]2CCCN2C(=O)[C@H](CC(=O)O)NC(=O)[C@H](CO)NC(=O)[C@H](CCCCN)NC(=O)[C@H]([C@@H](C)O)NC(=O)[C@@H]2CSSC[C@H](NC1=O)C(=O)N[C@@H](CC(N)=O)C(=O)N1CCC[C@@H]1C(=O)N1CCC[C@H]1C(=O)N[C@@H](Cc1ccccc1Cl)C(=O)N2` [Ex. 45] (HELM PEPTIDE1{[O=C([C@H](Cc1ccccc1Cl)N[*:1])[*:2]].C.T.K.S.D.P.P.I.C.N.[dP].P}$PEPTIDE1,PEPTIDE1,2:R3-10:R3|PEPTIDE1,PEPTIDE1,1:R1-13:R2$$$V2.0) displayed a half-maximal inhibitory concentration (IC50) of 0.047 µM.

In turn, `CC[C@H](C)[C@@H]1NC(=O)[C@@H]2CCCN2C(=O)[C@@H]2CCCN2C(=O)[C@H](CC(=O)O)NC(=O)[C@H](CO)NC(=O)[C@H](CCCCN)NC(=O)[C@H]([C@@H](C)O)NC(=O)[C@@H]2CSSC[C@H](NC1=O)C(=O)N[C@@H](CC(=O)O)C(=O)N1CCC[C@@H]1C(=O)N1CCC[C@H]1C(=O)N[C@@H](CCc1ccccc1)C(=O)N2` [Ex. 29] (HELM PEPTIDE1{[O=C([C@H](CCc1ccccc1)N[*:1])[*:2]].C.T.K.S.D.P.P.I.C.D.[dP].P}$PEPTIDE1,PEPTIDE1,2:R3-10:R3|PEPTIDE1,PEPTIDE1,1:R1-13:R2$$$V2.0) came in with an IC50 in test [1] of 0.042 µM.

With `CC[C@H](C)[C@@H]1NC(=O)[C@@H]2CCCN2C(=O)[C@@H]2CCCN2C(=O)[C@H](CC(=O)O)NC(=O)[C@H](CO)NC(=O)[C@H](CCCCN)NC(=O)[C@H]([C@@H](C)O)NC(=O)[C@@H]2CSSC[C@H](NC1=O)C(=O)N[C@@H](CO)C(=O)N[C@H]([C@H](C)O)C(=O)N1CCC[C@H]1C(=O)N[C@@H](Cc1ccccc1)C(=O)N2` [Ex. 72] (HELM PEPTIDE1{C.S.[dT].P.F.C.T.K.S.D.P.P.I}$PEPTIDE1,PEPTIDE1,1:R3-6:R3|PEPTIDE1,PEPTIDE1,1:R1-13:R2$$$V2.0), in test [1], the 50% inhibitory concentration (IC50) is 0.087 µM.

Compound `CC[C@H](C)[C@@H]1NC(=O)[C@@H]2CCCN2C(=O)[C@@H]2CCCN2C(=O)[C@H](CC(=O)O)NC(=O)[C@H](CO)NC(=O)[C@H](CCCCN)NC(=O)[C@H]([C@@H](C)O)NC(=O)[C@@H]2CSSC[C@H](NC1=O)C(=O)N[C@@H](CO)C(=O)N1CCC[C@@H]1C(=O)N1CCC[C@H]1C(=O)N[C@@H](Cc1cccc3ccccc13)C(=O)N2` [Ex. 62] (HELM PEPTIDE1{[O=C([C@H](Cc1cccc2ccccc12)N[*:1])[*:2]].C.T.K.S.D.P.P.I.C.S.[dP].P}$PEPTIDE1,PEPTIDE1,2:R3-10:R3|PEPTIDE1,PEPTIDE1,1:R1-13:R2$$$V2.0) had an IC50 in test [1] of 0.069 µM.

`CC[C@H](C)[C@@H]1NC(=O)[C@@H]2CCCN2C(=O)[C@@H]2CCCN2C(=O)[C@H](CC(=O)O)NC(=O)[C@H](CO)NC(=O)[C@H](CCCCN)NC(=O)[C@H]([C@@H](C)O)NC(=O)[C@@H]2CSSC[C@H](NC1=O)C(=O)N[C@@H](CC(N)=O)C(=O)N1CCC[C@@H]1C(=O)N1CCC[C@H]1C(=O)N[C@@H](CCc1ccccc1)C(=O)N2` [Ex. 27] (HELM PEPTIDE1{[O=C([C@H](CCc1ccccc1)N[*:1])[*:2]].C.T.K.S.D.P.P.I.C.N.[dP].P}$PEPTIDE1,PEPTIDE1,2:R3-10:R3|PEPTIDE1,PEPTIDE1,1:R1-13:R2$$$V2.0) came in with an IC50 in test [1] of 0.048 µM.

Regarding `CC[C@H](C)[C@@H]1NC(=O)[C@@H]2CCCN2C(=O)[C@@H]2CCCN2C(=O)[C@H](CC(=O)O)NC(=O)[C@H](CO)NC(=O)[C@H](CCCCN)NC(=O)[C@H]([C@@H](C)O)NC(=O)[C@@H]2CSSC[C@H](NC1=O)C(=O)N[C@@H](CC(N)=O)C(=O)N1CCC[C@@H]1C(=O)N1CCC[C@H]1C(=O)N[C@@H](CC1CCCCC1)C(=O)N2` [Ex. 33] (HELM PEPTIDE1{[Cha].C.T.K.S.D.P.P.I.C.N.[dP].P}$PEPTIDE1,PEPTIDE1,2:R3-10:R3|PEPTIDE1,PEPTIDE1,1:R1-13:R2$$$V2.0), in test [1], the IC50 was found to be 0.045 µM.

In test [1], `CCCC[C@@H]1NC(=O)[C@@H]2CCCN2C(=O)[C@H]2CCCN2C(=O)[C@H](CC(=O)O)NC(=O)[C@@H]2CSSC[C@H](NC1=O)C(=O)N[C@@H]([C@@H](C)O)C(=O)N[C@@H](CCCCN)C(=O)N[C@@H](CO)C(=O)N[C@@H](CC(=O)O)C(=O)N1CCC[C@H]1C(=O)N1CCC[C@H]1C(=O)N[C@@H]([C@@H](C)CC)C(=O)N2` [Ex. 43] (HELM PEPTIDE1{[Nle].C.T.K.S.D.P.P.I.C.D.[dP].P}$PEPTIDE1,PEPTIDE1,2:R3-10:R3|PEPTIDE1,PEPTIDE1,1:R1-13:R2$$$V2.0) returned a half-maximal inhibitory concentration (IC50) of 0.077 µM.

For `C[C@@H](O)[C@@H]1NC(=O)[C@@H]2CSSC[C@H](NC(=O)[C@H](CC3CCCCC3)NC(=O)[C@@H]3CCCN3C(=O)[C@@H]3CCCN3C(=O)[C@H](CC(=O)O)NC(=O)[C@H](CO)NC(=O)[C@H](CCCCN)NC1=O)C(=O)N[C@@H](CCCNC(=N)N)C(=O)N1CCC[C@@H]1C(=O)N1CCC[C@H]1C(=O)N[C@@H](C1CCCCC1)C(=O)N2` [Ex. 71] (HELM PEPTIDE1{[O=C([C@@H](N[*:1])C1CCCCC1)[*:2]].C.T.K.S.D.P.P.[Cha].C.R.[dP].P}$PEPTIDE1,PEPTIDE1,2:R3-10:R3|PEPTIDE1,PEPTIDE1,1:R1-13:R2$$$V2.0), the IC50 in test [1] is 0.07 µM.

In test [1], `CC[C@H](C)[C@@H]1NC(=O)[C@@H]2CCCN2C(=O)[C@@H]2CCCN2C(=O)[C@H](CC(=O)O)NC(=O)[C@H](CO)NC(=O)[C@H](CCCCN)NC(=O)[C@H]([C@@H](C)O)NC(=O)[C@@H]2CSSC[C@H](NC1=O)C(=O)N[C@@H]([C@@H](C)O)C(=O)N1CCC[C@@H]1C(=O)N1CCC[C@H]1C(=O)N[C@@H](CC1CCCCC1)C(=O)N2` [Ex. 34] (HELM PEPTIDE1{[Cha].C.T.K.S.D.P.P.I.C.T.[dP].P}$PEPTIDE1,PEPTIDE1,2:R3-10:R3|PEPTIDE1,PEPTIDE1,1:R1-13:R2$$$V2.0) yielded a half-maximal inhibitory concentration (IC50) of 0.056 µM.

Take `CC[C@H](C)[C@@H]1NC(=O)[C@@H]2CCCN2C(=O)[C@@H]2CCCN2C(=O)[C@H](CC(=O)O)NC(=O)[C@H](CO)NC(=O)[C@H](CCCCN)NC(=O)[C@H]([C@@H](C)O)NC(=O)[C@@H]2CSSC[C@H](NC1=O)C(=O)N[C@@H](CO)C(=O)N[C@H](CC(N)=O)C(=O)N1CCC[C@H]1C(=O)N[C@@H](Cc1ccccc1)C(=O)N2` [Ex. 69] (HELM PEPTIDE1{C.S.[dN].P.F.C.T.K.S.D.P.P.I}$PEPTIDE1,PEPTIDE1,1:R3-6:R3|PEPTIDE1,PEPTIDE1,1:R1-13:R2$$$V2.0): the midpoint of inhibition in test [1], the IC50, lay at 0.068 µM.

With `CC[C@H](C)[C@@H]1NC(=O)[C@@H]2CCCN2C(=O)[C@@H]2CCCN2C(=O)[C@H](CC(=O)O)NC(=O)[C@H](CO)NC(=O)[C@H](CCCCN)NC(=O)[C@H]([C@@H](C)O)NC(=O)[C@@H]2CSSC[C@H](NC1=O)C(=O)N[C@@H](CC(=O)O)C(=O)N1CCC[C@@H]1C(=O)N1CCC[C@H]1C(=O)N[C@@H](CC1CCCCC1)C(=O)N2` [Ex. 35] (HELM PEPTIDE1{[Cha].C.T.K.S.D.P.P.I.C.D.[dP].P}$PEPTIDE1,PEPTIDE1,2:R3-10:R3|PEPTIDE1,PEPTIDE1,1:R1-13:R2$$$V2.0), the IC50 in test [1] is 0.054 µM.

`C[C@@H](O)[C@@H]1NC(=O)[C@@H]2CSSC[C@H](NC(=O)[C@H](CC3CCCCC3)NC(=O)[C@@H]3CCCN3C(=O)[C@@H]3CCCN3C(=O)[C@H](CC(=O)O)NC(=O)[C@H](CO)NC(=O)[C@H](CCCCN)NC1=O)C(=O)N[C@@H](Cc1ccc(O)cc1)C(=O)N1CCC[C@@H]1C(=O)N1CCC[C@H]1C(=O)N[C@@H](C1CCCCC1)C(=O)N2` [Ex. 66] (HELM PEPTIDE1{[O=C([C@@H](N[*:1])C1CCCCC1)[*:2]].C.T.K.S.D.P.P.[Cha].C.Y.[dP].P}$PEPTIDE1,PEPTIDE1,2:R3-10:R3|PEPTIDE1,PEPTIDE1,1:R1-13:R2$$$V2.0) yielded a 50% inhibitory concentration (IC50) in test [1] of 0.048 µM.

In the case of `CC[C@H](C)[C@@H]1NC(=O)[C@@H]2CCCN2C(=O)[C@@H]2CCCN2C(=O)[C@H](CC(=O)O)NC(=O)[C@H](CO)NC(=O)[C@H](CCCCN)NC(=O)[C@H]([C@@H](C)O)NC(=O)[C@@H]2CSSC[C@H](NC1=O)C(=O)N[C@@H](Cc1ccc(O)cc1)C(=O)N1CCC[C@@H]1C(=O)N1CCC[C@H]1C(=O)N[C@@H](Cc1ccc(N)cc1)C(=O)N2` [Ex. 32] (HELM PEPTIDE1{[Nc1ccc(C[C@H](N[*:1])C(=O)[*:2])cc1].C.T.K.S.D.P.P.I.C.Y.[dP].P}$PEPTIDE1,PEPTIDE1,2:R3-10:R3|PEPTIDE1,PEPTIDE1,1:R1-13:R2$$$V2.0), 0.052 µM corresponded to half-maximal inhibition in test [1] (IC50).

In the case of `CCCCCCCC[C@@H]1NC(=O)[C@@H]2CCCN2C(=O)[C@H]2CCCN2C(=O)[C@H](Cc2ccc(O)cc2)NC(=O)[C@@H]2CSSC[C@H](NC1=O)C(=O)N[C@@H]([C@@H](C)O)C(=O)N[C@@H](C)C(=O)N[C@@H](CO)C(=O)N[C@@H](CC1CCCCC1)C(=O)N1CCC[C@H]1C(=O)N1CCC[C@H]1C(=O)N[C@@H](CCC(N)=O)C(=O)N2` [Ex. 150] (HELM PEPTIDE1{[CCCCCCCC[C@H](N[*:1])C(=O)[*:2]].C.T.A.S.[Cha].P.P.Q.C.Y.[dP].P}$PEPTIDE1,PEPTIDE1,2:R3-10:R3|PEPTIDE1,PEPTIDE1,1:R1-13:R2$$$V2.0), the concentration for half-maximal inhibition (IC50) in test [2] worked out at 0.01 µM.

The values are drawn from patent US8658604B2, “Template-fixed beta-hairpin peptidomimetics with protease inhibitory activity” (Polyphor Ltd, priority 2005, dated 2014).
